The values below come from patent US9745339B2 (GRAFFINITY PHARMACEUTICALS GMBH, priority 2012, dated 2017).

A value given as a limit tells only on which side of the number the result lay.

Data set [1] deals with Cetuximab. Nature of the data set: Microtiter plate chromatography of resins: binding and elution of Cetuximab. Particulars: fraction of injected protein bound; 0.5 mg/ml IgG in PBS pH 7.3. The gist of the method: (§1)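 About 30 μl resin columns loaded with 3.3 cv IgG at 0.5 mg ml^−1 in PBS (or undiluted HCP), washed with 5 cv PBS, eluted with 5 cv glycine pH 2.5. Fractions quantified by Bradford; bound fraction = (mi−mft)/mi, yield = me/mi.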

Data set [2] can be described thus: Alkaline stability of ligands in 0.5 M sodium hydroxide. The class given is physicochemical. To be noted: 25° C., 8 days, hydrolysis monitored by LC-MS, read-out: t0.5 (half-life) (converted). The procedure:
A subset of ligands from Example 1 was tested for its alkaline stability. Ligands were treated with 0.5 M sodium hydroxide at 25° C. for 8 days. Hydrolysis was monitored by LC-MS analysis.

Data set [3] deals with T1, Bevacizumab (Homo sapiens, UniProt P01857).
T1 construct: 0.5 mg/ml IgG in PBS pH 7.3; ligand immobilized on SEPHAR; Bevacizumab Yield; other: mass eluted (glycine pH 2.5) / mass injected; kd (dissociation constant, Langmuir isotherm); other: Bevacizumab 0.05-5 mg/ml in PBS pH 7.3, 25° C., at least 3 h; qm (maximum capacity); other: mg Bevacizumab per ml of resin; Langmuir isotherm; t0; fused on or other part: Humanized anti-VEGF-A VH domain joined N-terminally to the IGHG1 constant region (engineered, no UniProt entry)
The experiment in a line: Uptake kinetics by batch adsorption (time-scale of binding). To be noted: time after which 80% of equilibrium saturation occurred; 0.75 mg/ml Bevacizumab in PBS, 25° C. On the procedure:
Uptake kinetics was investigated similarly by batch adsorption in 96-well filter plates. Again, 10 μl of sorbent slurry (50% v/v) were mixed with 100 μl of protein solution. […] Reactions were agitated vigorously at 25° C. for up to 80 min. Supernatants were separated rapidly by spinning through filters after 2.5, 5, 10, 20, 40 and 80 minutes and sampled for analysis. Concentrations of the antibody were analyzed by Bradford assay.
For determination of t0.8, measured concentrations in the supernatant were interpolated by fitting of double-exponentials and values of t0.8 were read out from graphs (2).

For data set [4], the system named is poly-IgG from human serum (h-poly-IgG). Nature of the data set: Microtiter plate chromatography of resins: binding and elution of human poly-IgG. To be noted: fraction of injected protein bound; 0.5 mg/ml IgG in PBS pH 7.3. In outline:
as §1

Data set [5] addresses T1, Bevacizumab. Nature of the data set: Microtiter plate chromatography of resins: binding and elution of Bevacizumab. Particulars: for Bevacizumab Bound: fraction of injected protein bound, 0.5 mg/ml IgG in PBS pH 7.3, ligand immobilized on SEPHAROSE 4 FF; for Bevacizumab Yield: mass eluted (glycine pH 2.5) / mass injected. The gist of the method:
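About 30 μl packed resin columns loaded with 3.3 cv IgG at 0.5 mg ml^−1 in PBS or undiluted HCP, washed with 5 cv PBS, eluted with 5 cv glycine pH 2.5. Protein in fractions by Bradford. Bound fraction = (injected − flowthrough)/injected; yield = eluted/injected; selectivity = Bevacizumab bound fraction / HCP bound fraction, truncated beyond 10.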

In data set [6] the test system is Palivizumab. Nature of the data set: Microtiter plate chromatography of resins: binding and elution of Palivizumab. To be noted: fraction of injected protein bound; 0.5 mg/ml IgG in PBS pH 7.3. In outline:
as §1

Data set [7] deals with host cell proteins (HCP). The experiment in a line: Microtiter plate chromatography of resins: binding of host cell proteins. Set-up: species or system CHO cell culture. Particulars: fraction of injected undiluted host cell proteins bound. In outline:
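Undiluted HCP-containing flowthrough from protein A chromatography of CHO serum-free culture was loaded onto ~30 µl packed resin columns in microtiter-plate format. Columns were washed with 5 cv PBS and eluted with glycine pH 2.5, and fractions were quantified by Bradford. Bound fraction = (injected − flowthrough mass)/injected mass.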

In data set [8] the target is T1, Bevacizumab. The experiment in a line: Langmuir isotherms by batch adsorption. Format: binding. Particulars: for Kd: Bevacizumab 0.05-5 mg/ml in PBS pH 7.3, 25° C., at least 3 h, read-out: kd (dissociation constant, Langmuir isotherm) (converted); for qm (maximum capacity): mg Bevacizumab per ml of resin, Langmuir isotherm.
Data set [9] relates to Tocilizumab. The experiment in a line: Microtiter plate chromatography of resins: binding and elution of Tocilizumab. To be noted: fraction of injected protein bound; 0.5 mg/ml IgG in PBS pH 7.3. In outline:
as §1

`CCc1nnc(NC(=O)c2ccc3c(c2)ncn3CCCN)s1` [Ligand L07, 1-(3-Amino-1-propyl)benzimidazole-5-carboxylic acid N-(2-ethyl-1,3,4-thiadiazol-5-yl) amide]: the “Cetuximab Bound” value in data set [1] is on record as 100%. In data set [2], the half-life (commonly how long it takes for the measured level to halve) was above 41.6 days. The “t0.8 (time-scale of binding)” value in data set [3] amounted to 8.8 min. Besides, the “h-poly-IgG Bound” value in data set [4] is recorded as 94%. Moreover, in [5], the “Bevacizumab Bound” value came out at 100% and the “Bevacizumab Yield” value is recorded as 93%. In data set [6], the “Palivizumab Bound” value stood at 90%. Moreover, in [7], the “HCP Bound” value is on record as 23%. In addition, in [8], the Kd (commonly the concentration at which binding is half-saturated) is 200 µM and the “qm (maximum capacity)” value stood at 38 mg/mL. Also, the “Tocilizumab Bound” value in data set [9] worked out at 100%.
Consider `NCCCn1cnc2cc(C(=O)Nc3nc(-c4ccccn4)cs3)ccc21` [Ligand L23, 1-(3-Amino-1-propyl)benzimidazole-5-carboxylic acid N-[4-(2-pyridyl)thiazol-2-yl] amide], for which the “Cetuximab Bound” value in [1] is recorded as 100%. In data set [2], the half-life is above 41.6 days. Besides, in [3], the “t0.8 (time-scale of binding)” value turned out to be 7.7 min. In addition, the “h-poly-IgG Bound” value in data set [4] turned out to be 100%. Further, in data set [5], the “Bevacizumab Bound” value came out at 100% and the “Bevacizumab Yield” value turned out to be 107%. For the same compound, the “Palivizumab Bound” value in data set [6] stood at 100%. Besides, the “HCP Bound” value in data set [7] came to 13%. Further, in [8], the Kd was 122 µM and the “qm (maximum capacity)” value was 46 mg/mL. The “Tocilizumab Bound” value in data set [9] is 100%.
Take `NCCCn1c(=O)[nH]c2cc(C(=O)Nc3nnc(-c4ccco4)s3)ccc21` [Ligand L24, 1-(3-Amino-1-propyl)-2-oxo-2,3-dihydrobenzimidazole-5-carboxylic acid N-[5-(2-furyl)-1,3,4-thiadiazol-2-yl] amide]: the “Cetuximab Bound” value in data set [1] came out at 100%. The half-life in data set [2] is above 41.6 days. In addition, in [3], the “t0.8 (time-scale of binding)” value was determined as 9.4 min. Besides, the “h-poly-IgG Bound” value in [4] turned out to be 100%. Also, in [5], the “Bevacizumab Bound” value was determined as 100% and the “Bevacizumab Yield” value was determined as 101%. In data set [6], the “Palivizumab Bound” value is recorded as 100%. Moreover, the “HCP Bound” value in data set [7] worked out at 12%. In addition, in data set [8], the Kd was 583 µM and the “qm (maximum capacity)” value worked out at 42 mg/mL. Besides, the “Tocilizumab Bound” value in [9] worked out at 100%.
For the compound `CCc1nc2cc(C(=O)Nc3nc(-c4ccccn4)cs3)ccc2n1CCCN` [Ligand L43, 1-(3-Amino-1-propyl)-2-ethylbenzimidazole-5-carboxylic acid N-[4-(2-pyridyl)thiazol-2-yl] amide], in [1], the “Cetuximab Bound” value is 100%. Moreover, the half-life in data set [2] is above 41.6 days. Besides, the “t0.8 (time-scale of binding)” value in data set [3] was 8.2 min. Besides, in data set [4], the “h-poly-IgG Bound” value was found to be 100%. Moreover, in data set [5], the “Bevacizumab Bound” value is 100% and the “Bevacizumab Yield” value was 95%. In addition, the “Palivizumab Bound” value in data set [6] is given as 98%. In addition, the “HCP Bound” value in [7] turned out to be 18%. Further, in data set [8], the Kd was 399 µM and the “qm (maximum capacity)” value came to 43 mg/mL. Besides, the “Tocilizumab Bound” value in [9] came to 100%.
With `NCCCNc1ccc(C(=O)Nc2nc(-c3ccccn3)cs2)cn1` [Ligand L40, 6-[(3-Amino-1-propyl)amino]nicotinic acid N-[4-(2-pyridyl)thiazol-2-yl] amide], the “Cetuximab Bound” value in data set [1] was 100%. The half-life in [2] was 32.6 days. In addition, the “t0.8 (time-scale of binding)” value in [3] came out at 9.2 min. Besides, the “h-poly-IgG Bound” value in data set [4] turned out to be 98%. For the same compound, in data set [5], the “Bevacizumab Bound” value was 100% and the “Bevacizumab Yield” value came out at 101%. In [6], the “Palivizumab Bound” value came out at 89%. Also, in data set [7], the “HCP Bound” value is on record as 20.5%. The “qm (maximum capacity)” value in data set [8] was determined as 39 mg/mL. Further, the “Tocilizumab Bound” value in data set [9] is given as 99%.
Take `NCCCn1cnc2cc(C(=O)Nc3nc(-c4cccnc4)cs3)ccc21` [Ligand L46, 1-(3-Amino-1-propyl)benzimidazole-5-carboxylic acid N-[4-(3-pyridyl)thiazol-2-yl] amide]: in data set [1], the “Cetuximab Bound” value was determined as 100%. Also, the half-life in data set [2] was 30 days. Also, the “t0.8 (time-scale of binding)” value in [3] is 6.0 min. For the same compound, in data set [4], the “h-poly-IgG Bound” value turned out to be 100%. For the same compound, in [5], the “Bevacizumab Bound” value was 100% and the “Bevacizumab Yield” value amounted to 103%. The “Palivizumab Bound” value in [6] is recorded as 98%. In data set [7], the “HCP Bound” value is 17%. Further, in data set [8], the Kd is 185 µM and the “qm (maximum capacity)” value turned out to be 48 mg/mL. The “Tocilizumab Bound” value in data set [9] turned out to be 100%.
For `Cc1nc2cc(C(=O)Nc3nnc(-c4ccco4)s3)ccc2n1CCCN` [Ligand L39, 1-(3-Amino-1-propyl)-2-methylbenzimidazole-5-carboxylic acid N-[5-(2-furyl)-1,3,4-thiadiazol-2-yl] amide], in data set [1], the “Cetuximab Bound” value is given as 100%. Besides, in data set [2], the half-life is above 41.6 days. The “t0.8 (time-scale of binding)” value in data set [3] is 7.8 min. For the same compound, the “h-poly-IgG Bound” value in data set [4] came to 100%. For the same compound, in data set [5], the “Bevacizumab Bound” value was 100% and the “Bevacizumab Yield” value is given as 85%. In addition, in data set [6], the “Palivizumab Bound” value worked out at 100%. For the same compound, the “HCP Bound” value in data set [7] came to 10%. Moreover, the “qm (maximum capacity)” value in [8] stood at 49 mg/mL. Besides, in data set [9], the “Tocilizumab Bound” value is 100%.
Turning to `NCCCNc1ccc(C(=O)Nc2nnc(-c3ccco3)s2)cn1` [Ligand L19, 6-[(3-Amino-1-propyl)amino]nicotinic acid N-[5-(2-furyl)-1,3,4-thiadiazol-2-yl]amide], in [1], the “Cetuximab Bound” value turned out to be 100%. For the same compound, the half-life in [2] was above 41.6 days. In data set [3], the “t0.8 (time-scale of binding)” value stood at 8.9 min. Further, in data set [4], the “h-poly-IgG Bound” value stood at 98%. Besides, in data set [5], the “Bevacizumab Bound” value was determined as 100% and the “Bevacizumab Yield” value came to 98%. In addition, in [6], the “Palivizumab Bound” value worked out at 99%. Also, in data set [7], the “HCP Bound” value came to 14%. Moreover, in [8], the Kd is 578 µM and the “qm (maximum capacity)” value amounted to 42 mg/mL. Moreover, the “Tocilizumab Bound” value in data set [9] stood at 100%.
For `Cn1nc(C(=O)Nc2ccc3c(c2)ncn3CCCN)c2ccccc21` [Ligand L01, 1-(3-Amino-1-propyl)-5-[(1-methylindazol-3-yl)carboxamido]benzimidazole], the “Cetuximab Bound” value in data set [1] came out at 100%. Besides, in [2], the half-life was 35 days. Moreover, the “t0.8 (time-scale of binding)” value in data set [3] turned out to be 9.2 min. The “h-poly-IgG Bound” value in data set [4] was 100%. Moreover, in data set [5], the “Bevacizumab Bound” value was 100% and the “Bevacizumab Yield” value worked out at 90%. Also, the “Palivizumab Bound” value in [6] amounted to 99%. Further, the “HCP Bound” value in data set [7] is 33%. In addition, in data set [8], the Kd was 210 µM and the “qm (maximum capacity)” value came out at 40 mg/mL. Further, the “Tocilizumab Bound” value in data set [9] turned out to be 100%.
With `NCCCn1cnc2cc(C(=O)Nc3nc(-c4ccncc4)cs3)ccc21` [Ligand L47, 1-(3-Amino-1-propyl)benzimidazole-5-carboxylic acid N-[4-(4-pyridyl)thiazol-2-yl] amide], in data set [1], the “Cetuximab Bound” value was 100%. Further, the half-life in [2] is above 41.6 days. For the same compound, the “t0.8 (time-scale of binding)” value in [3] was 5.6 min. Also, in data set [4], the “h-poly-IgG Bound” value is on record as 100%. In data set [5], the “Bevacizumab Bound” value is given as 100% and the “Bevacizumab Yield” value came out at 100%. The “Palivizumab Bound” value in data set [6] was 98%. For the same compound, the “HCP Bound” value in data set [7] is reported as 13%. Moreover, in data set [8], the Kd was 169 µM and the “qm (maximum capacity)” value was found to be 43 mg/mL. Moreover, in data set [9], the “Tocilizumab Bound” value is reported as 99%.
